Patent publication US5004690A, “Ascorbic acid intermediates and process enzymes” (Genetech, Inc., priority 1989, dated 1991)
Read-outs that look alike come from different tables or passages of the source.

Molecular target: T1, 2,5-DKG reductase (Corynebacterium sp., UniProt P06632)
T1 construct: resuspension in 650 ml Tris buffer containing 2 mg/ml lyozyme to release intracellular proteins; endogenous in cells; host or cells: Corynebacterium sp; ATCC 31090 (enzyme purified in house from the cell paste)
T1 sequence (P06632 whole entry): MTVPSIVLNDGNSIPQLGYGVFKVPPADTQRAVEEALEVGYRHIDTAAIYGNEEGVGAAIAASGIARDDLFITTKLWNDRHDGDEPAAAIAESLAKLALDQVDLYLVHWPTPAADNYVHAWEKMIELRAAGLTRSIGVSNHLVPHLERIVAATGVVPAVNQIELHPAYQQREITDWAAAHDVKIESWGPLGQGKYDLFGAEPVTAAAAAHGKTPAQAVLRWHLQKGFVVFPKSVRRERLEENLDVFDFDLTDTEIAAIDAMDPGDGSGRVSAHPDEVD
Assay: 2,5-DKG reductase assay: kinetic parameters, substrate specificity, cofactor requirements, pH optimum
Format: biochemical, Corynebacterium sp. ATCC 31090
Conditions: sodium phosphate buffer 150 mM, pH 6.4, 25° C., enzyme 10 μg, read-out: Michaelis constants (Km)
Source text: The following assay conditions were used to determine kinetic parameters: […]

SMILES | Km (NADPH 11-300 μM) [mM] | Km (2,5-DKG 0.43-43 mM) [mM]
NC(=O)C1=CN([C@@H]2O[C@H](COP(=O)(O)OP(=O)(O)OC[C@H]3O[C@@H](n4cnc5c(N)ncnc54)[C@H](OP(=O)(O)O)[C@@H]3O)[C@@H](O)[C@H]2O)C=CC1 [NADPH] | 0.0337 | 
O=C(O)C(=O)[C@@H](O)[C@H](O)C(=O)CO [2,5-DKG, 2,5-diketogluconic acid] |  | 15.5
